One block for each compound: values may come before it. Peptide text beside a SMILES is read from it.
Tests used:
hMC4-R [1] = biological target: T1, hMC4-R (Homo sapiens (Human), UniProt P32245); assay: Assay for agonist activity (cAMP accumulation, HEK-293 cells expressing hMC4-R); details: agonist = intrinsic activity 70% or higher; partial agonist 10-70%
Experimental: By “intrinsic activity” is meant the maximal functional activity achievable by a compound in a specified melanocortin receptor expressing cell system, such as the maximal stimulation of adenylyl cyclase.
Accumulation of intracellular cAMP was examined as a measure of the ability of the peptides of the present invention to elicit a functional response in HEK-293 cells that express MC4-R. Confluent HEK-293 cells that express recombinant hMC4-R were detached from culture plates by incubation in enzyme-free cell dissociation buffer. Dispersed cells were suspended in Earle's Balanced Salt Solution containing 10 mM HEPES (pH 7.5), 1 mM MgCl2, 1 mM glutamine, 0.5% albumin and 0.3 mM 3-isobutyl-1-methyl-xanthine (IBMX), a phosphodiesterase inhibitor. […] Cells were exposed for 15 minutes at 37° C. to peptides of the present invention dissolved in DMSO (final DMSO concentration of 1%) at a concentration range of 0.05-5000 nM in a total assay volume of 200 μL. […] Data analysis was performed by nonlinear regression analysis with Graph-Pad Prism® software. The maximum efficacies of the test peptides of the present invention were compared to that achieved by the reference melanocortin agonist NDP-αMSH.

[2] = Induction of penile erection in male rats; type: in vivo, rat; details: for induction of penile erection: male Sprague-Dawley rats, 60 minute observation, No. 154 as trifluoracetic acid salt, No. 155 as acetate salt
Text: Each dose group contained six or seven animals, with video observation for sixty minutes following administration.

[3] = Rat feeding study: food intake and body weight change; type: in vivo; details: for effect on food intake and rate of change in body weight: rat feeding studies, 0.3 and 1 mg/kg, bremelanotide as positive control; for decrease in food consumption compared to control: rat
Experimental: Change in food intake and body weight was evaluated for selected peptides administered by intravenous (IV) or subcutaneous injection routes. Male Sprague-Dawley rats were obtained from Hilltop Lab Animals, Inc. (Scottsdale, Pa.) or other vendors. Animals were individually housed in conventional polystyrene hanging cages and maintained on a controlled 12 hour on/off light cycle. Water and pelleted food was provided ad libitum. The rats were dosed IV with vehicle or selected peptides (0.3 to 1.0 mg/kg), or dosed subcutaneously with vehicle or selected peptides (doses up to 30 mg/kg). The changes in body weight and food intake for the 24 hour period after dosing was determined. The changes in body weight and food intake for the 48 hour and 72 hour periods after dosing can also be measured to determine reversal of changes in body weight and food intake effects back to baseline levels.

hMC4-R [4] = biological target: T1, hMC4-R; assay: Competitive binding assay using Eu-NDP-α-MSH; details: Eu-NDP-α-MSH (values marked *); averaged; read-out: MC4-R Ki
Experimental: Alternatively, a competitive inhibition binding assay was performed employing Eu-NDP-α-MSH (PerkinElmer Life Sciences catalog No. AD0225) with determination by time-resolved fluorometry (TRF) of the lanthanide chelate. […] After incubation for 90 minutes at 37° C., the reaction was stopped by filtration over AcroWell 96-well filter plates (Pall Life Sciences). The filter plates were washed 4 times with 200 μL of ice-cold phosphate-buffered saline. DELFIA Enhancement solution (PerkinElmer Life Sciences) was added to each well. […] Each assay was conducted in duplicate and mean values were utilized. Ki values were determined by curve-fitting with Graph-Pad Prism® software using a one-site fixed-slope competition binding model.

hMC4-R [5] = biological target: T1, hMC4-R; assay: Competitive inhibition binding assay using [I125]-NDP-α-MSH; details: [I125]-NDP-α-MSH (unmarked values); averaged; read-out: MC4-R Ki
Experimental: A competitive inhibition binding assay is performed using membrane homogenates prepared from HEK-293 cells that express recombinant hMC4-R, hMC3-R, or hMC5-R, and from B-16 mouse melanoma cells (containing endogenous MC1-R). In some instances, HEK-293 cells that express recombinant hMC1-R were employed. In the examples that follow, all MC3-R, MC4-R and MC5-R values are for human recombinant receptors. […] Membrane homogenates were incubated with 0.2 nM (for hMC4-R) 0.4 nM (for MC3-R and MC5-R) or 0.1 nM (for mouse B16 MC1-R or hMC1-R) [I^125]-NDP-α-MSH (Perkin Elmer) and increasing concentrations of test peptides of the present invention in buffer containing 25 mM HEPES buffer (pH 7.5) with 100 mM NaCl, 2 mM CaCl2, 2 mM MgCl2, 0.3 mM 1,10-phenanthroline, and 0.2% bovine serum albumin. After incubation for 60 minutes at 37° C., the assay mixture was filtered and the membranes washed three times with ice-cold buffer. Filters were dried and counted in a gamma counter for bound radioactivity. […] Maximal specific binding (100%) was defined as the difference in radioactivity (cpm) bound to cell membranes in the absence and presence of 1 μM NDP-α-MSH. […] Each assay was conducted in triplicate and the actual mean values are described, with results less than 0% reported as 0%. Ki values for test peptides of the present invention were determined using Graph-Pad Prism® curve-fitting software.

[6] = 1 mg/kg, 0-2, 0-4 and 0-20 hour periods

T1 sequence (P32245 whole entry): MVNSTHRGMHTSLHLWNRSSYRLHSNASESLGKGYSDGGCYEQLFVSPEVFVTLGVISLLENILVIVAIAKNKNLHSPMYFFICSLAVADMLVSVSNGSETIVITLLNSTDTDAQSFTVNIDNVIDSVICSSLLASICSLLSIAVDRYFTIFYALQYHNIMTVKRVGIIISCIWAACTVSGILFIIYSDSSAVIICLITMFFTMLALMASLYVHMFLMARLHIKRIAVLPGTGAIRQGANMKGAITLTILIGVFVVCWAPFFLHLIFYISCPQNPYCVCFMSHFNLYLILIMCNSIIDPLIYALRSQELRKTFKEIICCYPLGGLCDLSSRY

- functional classification at MC4-R (agonist / partial agonist) (hMC4-R [1]): agonist
Structure (SMILES): CC(=O)N[C@@H](CCCNC(=N)N)C(=O)N[C@H]1CCNC(=O)CCC[C@@H](C(N)=O)NC(=O)[C@H](Cc2c[nH]c3ccccc23)NC(=O)[C@H](CCCNC(=N)N)NC(=O)[C@@H](Cc2ccccc2)NC(=O)[C@H](Cc2c[nH]cn2)NC1=O [compound 128, Ac-Arg-cyclo(Dab-His-D-Phe-Arg-Trp-hGlu)-NH2]

Structure (SMILES): CC(=O)N[C@@H](CCCNC(=N)N)C(=O)N[C@H]1CCCNC(=O)CC[C@@H](C(N)=O)NC(=O)[C@H](Cc2c[nH]c3ccccc23)NC(=O)[C@H](CCCNC(=N)N)NC(=O)[C@@H](Cc2ccccc2)NC(=O)[C@H](CC(N)=O)NC1=O [compound 154, Ac-Arg-cyclo(Orn-Asn-D-Phe-Arg-Trp-Glu)-NH2]
- induction of penile erection ([2]; subcutaneous): robustly induce a penile erection

- functional classification at MC4-R (agonist / partial agonist) (hMC4-R [1]): partial agonist
Structure (SMILES): CC(=O)N[C@@H](CCCNC(=N)N)C(=O)N[C@H]1CC(=O)NCCCC[C@@H](C(N)=O)NC(=O)[C@H](Cc2c[nH]c3ccccc23)NC(=O)[C@H](CCCNC(=N)N)NC(=O)[C@@H](Cc2ccccc2)NC(=O)[C@H](C(C)C)NC1=O [Peptide No. 16, Ac-Arg-cyclo(Asp-Val-D-Phe-Arg-Trp-Lys)-NH2]
- effect on food intake and rate of change in body weight [3]: reduce food intake and decrease the rate of change in body weight
- decrease in food consumption compared to control ([3]; 0.3 mg/kg, 0-2 and 0-4 hour periods): statistically significant
- decrease in food consumption compared to control [3, 6]: statistically significant

- Ki (hMC4-R [4]): 110 nM
Structure (SMILES): CC(=O)N[C@@H](CCCNC(=N)N)C(=O)N[C@H]1CC(=O)NCCCC[C@@H](C(N)=O)NC(=O)[C@H](Cc2c[nH]c3ccccc23)NC(=O)[C@H](CCCNC(=N)N)NC(=O)[C@@H](Cc2ccccc2)NC(=O)[C@H](CCNC(=O)CN)NC1=O [compound 94, Ac-Arg-cyclo(Asp-Dab(Glycly)-D-Phe-Arg-Trp-Lys)-NH2]

- functional classification at MC4-R (agonist / partial agonist) (hMC4-R [1]): agonist
Structure (SMILES): CC(=O)N[C@@H](CCCNC(=N)N)C(=O)N[C@H]1CCNC(=O)CCC[C@@H](C(N)=O)NC(=O)[C@H](Cc2c[nH]c3ccccc23)NC(=O)[C@H](CCCNC(=N)N)NC(=O)[C@@H](Cc2ccccc2)NC(=O)[C@H](CCN)NC1=O [compound 129, Ac-Arg-cyclo(Dab-Dab-D-Phe-Arg-Trp-hGlu)-NH2]

- functional classification at MC4-R (agonist / partial agonist) (hMC4-R [1]): agonist
Structure (SMILES): CC(=O)N[C@@H](CCCNC(=N)N)C(=O)N[C@H]1CCCC(=O)NCC[C@@H](C(N)=O)NC(=O)[C@H](Cc2c[nH]c3ccccc23)NC(=O)[C@H](CCCNC(=N)N)NC(=O)[C@@H](Cc2ccccc2)NC(=O)[C@H](Cc2c[nH]cn2)NC1=O [compound 126, Ac-Arg-cyclo(hGlu-His-D-Phe-Arg-Trp-Dab)-NH2]

- Ki (hMC4-R [5]): 35 nM
Structure (SMILES): CC(=O)N[C@@H](CCCNC(=N)N)C(=O)N[C@H]1CCNC(=O)CCC[C@@H](C(N)=O)NC(=O)[C@H](Cc2c[nH]c3ccccc23)NC(=O)[C@H](CCCNC(=N)N)NC(=O)[C@@H](Cc2ccccc2)NC(=O)[C@H](CCN)NC1=O [compound 136, Ac-Arg-cyclo(Dab-Dab-D-Phe-Arg-Trp-hGlu)-OH]

- Ki (hMC4-R [5]): 9 nM
Structure (SMILES): CC(=O)N[C@@H](CCCNC(=N)N)C(=O)N[C@H]1CC(=O)NCCCC[C@@H](C(N)=O)NC(=O)[C@H](Cc2c[nH]c3ccccc23)NC(=O)[C@H](CCCNC(=N)N)NC(=O)[C@@H](Cc2ccccc2)NC(=O)[C@H](CCN)NC1=O [compound 141, Ac-Cit-cyclo(Asp-Dab-D-Phe-Arg-Trp-Lys)-NH2]

Structure (SMILES): CC(=O)N[C@@H](CCCNC(=N)N)C(=O)N[C@H]1CCCCNC(=O)C[C@@H](C(N)=O)NC(=O)[C@H](Cc2c[nH]c3ccccc23)NC(=O)[C@H](CCCNC(=N)N)NC(=O)[C@@H](Cc2ccccc2)NC(=O)[C@H](CC(N)=O)NC1=O [compound 155, Ac-Arg-cyclo(Lys-Asn-D-Phe-Arg-Trp-Asp)-NH2] (HELM PEPTIDE1{[ac].R.K.N.[dF].R.W.D.[am]}$PEPTIDE1,PEPTIDE1,3:R3-8:R3$$$V2.0)
- induction of penile erection ([2]; subcutaneous): robustly induce a penile erection

- Ki (hMC4-R [4]): 4 nM
Structure (SMILES): CC(=O)N[C@H](CCCNC(=N)N)C(=O)N[C@H]1CCCNC(=O)CC[C@@H](C(N)=O)NC(=O)[C@H](Cc2c[nH]c3ccccc23)NC(=O)[C@H](CCCNC(=N)N)NC(=O)[C@@H](Cc2ccccc2)NC(=O)[C@H](Cc2c[nH]cn2)NC1=O [compound 98, Ac-D-Arg-cyclo(Orn-His-D-Phe-Arg-Trp-Glu)-NH2]

- functional classification at MC4-R (agonist / partial agonist) (hMC4-R [1]): agonist
Structure (SMILES): CC(=O)N[C@@H](CCCNC(=N)N)C(=O)N[C@H]1CC(=O)NCCCC[C@@H](C(N)=O)NC(=O)[C@H](Cc2c[nH]c3ccccc23)NC(=O)[C@H](CCCNC(=N)N)NC(=O)[C@@H](Cc2ccccc2)NC(=O)[C@H](CCC(N)=O)NC1=O [Peptide No. 32, Ac-Arg-cyclo(Asp-Gln-D-Phe-Arg-Trp-Lys)-NH2]
- observed spontaneous erections ([2]; rat, subcutaneous, doses of 1, 3 or 10 mg/kg): increase in observed spontaneous erections

- functional classification at MC4-R (agonist / partial agonist) (hMC4-R [1]): agonist
Structure (SMILES): CC(=O)N[C@@H](CCCNC(=N)N)C(=O)N[C@H]1CCCC(=O)NCC[C@@H](C(N)=O)NC(=O)[C@H](Cc2c[nH]c3ccccc23)NC(=O)[C@H](CCCNC(=N)N)NC(=O)[C@@H](Cc2ccccc2)NC(=O)[C@H](CCN)NC1=O [compound 127, Ac-Arg-cyclo(hGlu-Dab-D-Phe-Arg-Trp-Dab)-NH]

- functional classification at MC4-R (agonist / partial agonist) (hMC4-R [1]): agonist
Structure (SMILES): CC(=O)N[C@@H](CCCNC(=N)N)C(=O)N[C@H]1CC(=O)NCCCC[C@@H](C(N)=O)NC(=O)[C@H](Cc2c[nH]c3ccccc23)NC(=O)[C@H](CCCNC(=N)N)NC(=O)[C@@H](Cc2ccccc2)NC(=O)[C@H](Cc2c[nH]cn2)NC1=O [Peptide No. 1, Ac-Arg-cyclo(Asp-His-D-Phe-Arg-Trp-Lys)-NH2]
- effect on food intake and rate of change in body weight [3]: reduce food intake and decrease the rate of change in body weight
- decrease in food consumption compared to control ([3]; 0.3 mg/kg, 0-2, 0-4 and 0-20 hour periods): statistically significant
- decrease in food consumption compared to control [3, 6]: statistically significant
- observed spontaneous erections compared to vehicle ([2]; rat, IV, doses of 0.3 or 1 mg/kg): statistically significant increase
